Patent US20060204562A1, “Microprojection arrays with improved biocompatibility” (priority 2005, published 2006)

What was measured:
Assay type in all cases: in vivo, hairless guinea pig
[1] = skin site irritation and bleeding after 24 h system wearing (erythema+edema score, photographs)
Experimental: (§1) Pretreatment and integrated systems described In U.S. application Ser. Nos. 10/971,430 and 10/970,901 were employed for the following analysis. The microprojection designs with retention features (i.e., 30a-30c) were used with the integrated system while the microprojection designs without retention features (i.e., 30d-30g) were used with the pretreatment system.
(§2) Following application of the systems, the gel formulation was left in contact with the skin for up to 24 h.
Referring now to FIG. 4, there is shown a series of photographs of the skin site following 24 h system wearing time.
An additional experiment using the pretreatment system was performed to compare microprojections lengths of 120 and 145 μm.
Referring now to FIG. 6, there is shown a graph illustrating the combined erythema+edema score obtained with the various microprojection designs. […] The results thus confirm that lower irritation is observed with shorter microprojections. Further, the skin site was not distinguishable from control sites (24 h wearing with the same formulation, no microprojection treatment).

[2] = transdermal drug absorption from gel formulation with microprojection systems, extrapolated from urinary excretion
Experimental: as §1, §2

[3] = urinary excretion of intact RWJ-445167 following IV injection (LC-MS); conditions: following IV injection of 0.5 to 3 mg RWJ-445167

- enhancement factor ([2]; 120 μm microprojection array pretreatment vs no microprojection treatment): at least 10000 fold
- duration of delivery ([2]; 120 μm microprojections (FIG. 8)): sustained delivery for 24 h
- drug absorbed ([2]; following pretreatment with a 120 μm microprojection array, 24 h wearing, 20 wt % gel formulation): about 2.5 mg
- drug absorption ([2]; formulation applied to the skin for 24 h in the absence of treatment with a microprojection array, detection limit): < 0.2 μg absorbed per 24 h
- dose found excreted intact in urine [3]: 7.5 % of the dose
Compound: Cc1cccc(S(=O)(=O)Nc2ccc(C)n(CC(=O)NCCON=C(N)N)c2=O)c1 [RWJ-445167]
- combined erythema+edema score (irritation) ([1]; 120 μm microprojections (FIG. 6), 24 h wearing): absence of irritation
- bleeding / erythema at skin site ([1]; pretreatment system, 120 μm microprojection length (FIG. 5)): no bleeding or erythema
- bleeding at skin site ([1]; pretreatment system, 145 μm microprojection length (FIG. 5)): some pinpoint bleeding
